Measurements taken from patent publication US20100204161A1, “Substances and Pharmaceutical Compositions for the Inhibition of Glyoxalases and Their Use Against Bacteria” (BIOMAC PRIVATINSTITUT FUR MEDIZINISHE UND ZAHMEDIZ …, priority 2005, published 2010).

What was measured:
[1] = target: T1, glyoxalase I of human erythrocytes (Homo sapiens, UniProt Q04760); assay: Enzymatic activity of human erythrocyte glyoxalase I (erythrocyte lysate); assay type: biochemical; settings: 0-50 mM; FIG. 5
T1 construct: from tissue; host or cells: human erythrocyte lysate
T1 sequence (Q04760 2-184 limits assumed): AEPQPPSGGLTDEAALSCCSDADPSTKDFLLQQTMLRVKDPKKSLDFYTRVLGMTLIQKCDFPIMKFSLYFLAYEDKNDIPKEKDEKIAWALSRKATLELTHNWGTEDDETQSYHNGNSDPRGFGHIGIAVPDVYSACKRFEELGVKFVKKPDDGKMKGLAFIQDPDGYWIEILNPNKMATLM
Method: The determination of glyoxalase I was performed as described above for the yeast enzyme. After the formation of the hemithioacetal, suitable amounts (5 to 100 μl) of an erythrocyte lysate were added to 1 ml of the measuring reagent to start the reaction. The erythrocyte lysate was prepared according to the instructions of Mannervik et al. (1982).
Glyoxalase activity (IU) corresponds to the amount of enzyme forming 1 μmol of S-D-lactoyl-glutathione/min.
Determination of glyoxalase I activity was performed according to the general protocol as described above. The influence of ethyl pyruvate on enzyme activity was investigated by addition of increasing concentrations of EP (Sigma; no. E4, 780-8; lot. S18972-513) (0-50 mM) to the measuring reagent.

[2] = system: biofilms (biofilm-forming microorganisms from pipe water); assay: Destruction of biofilms on contaminated silicone surfaces (colony forming units); assay type: cell-based; settings: for Colony forming units derivable from biofilms after treatment: normalized to 1 cm2 inner tube surface
Method: Biofilms were allowed to generate in a silicon tube system according to Gebel et al. (2005). In short, pipe water from a public water distributor was used as the source of biofilm-forming microorganisms. Water flow was at about 20 l per hour through silicon tubes from two commercial suppliers with inner diameters of 4 mm for 30 days at 25° C. After that the tubes were emptied, sealed at both ends and treated on their outer surface with 0.2% peroxoacetic acid for 1 hour. Tubes were then rinsed with sterile water and afterwards cut into pieces of 5 cm length each using a sterile scalpel. Pieces obtained this way were then dipped into solutions which contained the substance to be tested or respective controls. 25 ml of the test solutions were used in closed Falcon tubes (50 ml). […] Tubes were opened over their full length with scissors and the material deposited at the original inner surfaces of the tubes homogenized in 10 ml of saline (9 g NaCl/l water). Dilutions were made (decimal steps to 10^4) and 0.1 ml of these solutions plated onto test agar plates (1 l contained 0.5 g yeast extract, 0.5 g peptone, 0.5 g casein hydrolysate, 0.5 g starch. 0.3 g potassium hydrogen phosphate, 24 mg magnesium sulphate, 0.3 g sodium pyruvate, 15 g agar). Plates were incubated for seven days at 20° C. Colonies which formed were counted on each plate independent of their appearance and color. […] Two dilutions must be consistent in colony numbers, taken into consideration the respective dilution factors. Numbers were normalized to 1 cm2 of the inner tube surface. Each substance was analysed in duplicates. Biofilms were treated with water (control), ethyl pyruvate […] Numbers are given for each of the different silicon tubes used.

[3] = target: T2, glyoxalase II of human erythrocytes (Homo sapiens, UniProt Q16775); assay: Enzymatic activity of human erythrocyte glyoxalase II (erythrocyte hemolysate); assay type: biochemical; settings: 0-20 mM; FIG. 6
T2 construct: from tissue; host or cells: human erythrocyte hemolysate
Method: The determination of erythrocyte glyoxalase II (E.C.3.1.2.6., hydroxyacyl glutathione hydrolase) was performed according to the instructions of McLellan and Thornalley (1989). The principle is based on determining the initial hydrolysis of S-D-lactoyl-glutathione (L 7140, Sigma-Aldrich Chemie GmbH) in the presence of low amounts of a cell extract. Hydrolysis is observed on the basis of the reduction of the extinction at 240 nm (e=−3.1 mM-1 cm-1). Glyoxalase II activity (IU) correlates to the amount of enzyme hydrolysing 1 μmol of S-D-lactoyl-glutathione/min. The measurement was performed in 100 mM Tris-HCl buffer, pH 7.4. For this purpose 0.4 mM S-D-lactoyl-glutathione was added to 1 ml of the measuring reagent and the reaction was started by addition of suitable amounts (5-100 μl) of an erythrocyte hemolysate. The erythrocyte lysate was prepared according to the instructions of Mannervik et al. (1982).
Determination of glyoxalase II activity was performed according to the general protocol as described above. The influence of ethyl pyruvate on the activity of the enzyme was investigated by addition of increasing concentrations of EP (Sigma, no. E 4, 780-8; lot. S18972-513) (0-20 mM) to the measuring reagent.

[4] = system: primary human skin fibroblasts; assay: Vitality of primary human fibroblasts (dye exclusion count); assay type: cell-based; settings: 1-50 mM, serum free medium, 24 hours; FIG. 7
Method: An identical number (10^4 cells per well) of primary human skin fibroblasts were inoculated in 24-well plates (Greiner, no. 662160) and were cultured in DMEM (Gibco; no. 41966-092) in the presence of 10% calf serum (Biochrom, S0113/5), 2 mM L-glutamine (Gibco; no. 25030-024), penicillin/streptomycin (100 units penicillin/ml; 100 μg streptomycin/ml, Gibco; no. 15140/122), 5 mg % ascorbic acid (Serva, no. 14030.02) at 37° C., 5% CO2 and 95% humidity. The primary human fibroblasts were prepared according to the instructions of Birkenmeier et al. (1998). After reaching 50% confluency the medium was by fresh serum free medium. Thereafter the following supplements were added to the cells: preparation 1 (equivalent volume of serum free (SF) medium, blank); preparation 2 (1 mM DEL or 1 mM LEL or 1 mM EP); preparation 3 (5 mM DEL or 5 mM LEL or 5 mM EP), preparation 4 (10 mM DEL or 10 mM LEL or 10 mM EP), preparation 5 (20 mM DEL or 20 mM LEL or 20 mM EP), preparation 6 (50 mM DEL or 50 mM LEL or 50 mM EP). The culture was continued at 37° C., 5% CO2 and 95% humidity for 24 hours. Thereafter the supernatants were removed and 100 μl of a 50% […] solution was added to the wells. After washing the cells with medium the unstained and stained cells were counted under the light optical microscope comprising a coordinate plane. Cells stained blue were assessed as avital, unstained cells as vital. The percentage of unstained cells of the total number of cells corresponds to the vitality of the cells.

[5] = system: different microbial species: Candida spp., Escherichia coli, Klebsiella oxytoca, Pseudomonas aeruginosa, Enterococcus faecalis, Enterococcus faecium, MRSA …; assay: Agar dilution antimicrobial susceptibility test, aerobic conditions; settings: 12.5 mM to 40 mM in agar, 37° C., 20 hours, 21 strains incl. ESBL and MRSA, FIG. 8
Method: The agar dilution method was used for antimicrobial susceptibility test. A series of plates (petri dishes; Greiner, Cat No. 933161) were prepared with 20 ml agar medium (Iso-Sensitest-Agar Ca. No. CM474, OXOID, Germany) to which various concentrations of EP (12.5 mM to 40 mM) were added. Control agar plates were prepared without EP. The plates are then inoculated with a suitable-standardized suspension of the test microbial species (10^4 cfu) using an automated spotter (spots 1-21). The agar plates were incubated under aerobic conditions at 37° C. for 20 hours. At the respective positions of the spots growth (if permissive under the selected conditions) will result in the formation of cell discs. The evaluation of the test results is performed by inspecting the sizes of these discs. […]

## CCOC(=O)C(C)=O [Ethyl pyruvate]
[1]
  Inhibition of the enzymatic activity of glyoxalase I of human erythrocytes: inhibits the reaction of glyoxalase I of human erythrocytes in a concentration dependent manner
[2]; 10 mM, 30 min, first silicon tube
  Colony forming units derivable from biofilms after treatment: 4.9 × 10^3 colony forming units
[2]; 10 mM, 30 min, second silicon tube
  Colony forming units derivable from biofilms after treatment: 5.2 × 10^3 colony forming units
[2]; 10 mM, 120 min, first silicon tube
  Colony forming units derivable from biofilms after treatment: 1.6 × 10^3 colony forming units
[2]; 10 mM, 120 min, second silicon tube
  Colony forming units derivable from biofilms after treatment: 1.7 × 10^3 colony forming units
[2]; 25 mM, 30 min, first silicon tube
  Colony forming units derivable from biofilms after treatment: 4.4 × 10^2 colony forming units
[2]; 25 mM, 30 min, second silicon tube
  Colony forming units derivable from biofilms after treatment: 4.2 × 10^2 colony forming units
[2]; 25 mM, 120 min, first silicon tube
  Colony forming units derivable from biofilms after treatment: <10^2 colony forming units
[2]; 25 mM, 120 min, second silicon tube
  Colony forming units derivable from biofilms after treatment: <10^2 colony forming units
[2]; 25 mM, decreases from about 10^7, Table 5
  number of colony forming units after treatment of biofilm: < 10^2 colony forming units
[2]; compared to 0.1% peroxoacetic acid
  Effectiveness against biofilms compared to peroxoacetic acid: even more effective compared to a common disinfectant
[3]
  Inhibition of the enzymatic activity of glyoxalase II of human erythrocytes: inhibits the reaction of glyoxalase II in a concentration dependent manner
[4]
  Effect on the vitality of primary human fibroblasts: not toxic over the concentration range investigated
[5]
  Effect on growth of different microbial species: effectively inhibits the growth and proliferation of different microbial species
